We go through four molecules from patent publication US10450566B2, “Compounds for inducing anti-tumor immunity and methods thereof” (Cornell University, priority 2013, dated 2019).

Structures are written as SMILES.

What all share (type): cell-based, mouse
One test has as its system XBP1. The test is described as follows: XBP1 splicing and ER stress/lipid gene expression in naïve sDCs by RT-PCR/RT-qPCR. On the procedure: (§1) Murine recombinant cytokines were purchased from Peprotech. Cobalt chloride, Tunicamycin (used at 1 μg/ml), Tiron (used at 100-500 μM) and Vitamin E (α-tocopherol, used at 50-100 μM) were from Sigma. DCFDA staining was utilized for intracellular ROS detection (Abcam). Purified 4-HNE was obtained from Cayman Chemical and 4-HNE-protein adducts in ascites samples and DCs were detected and quantified through competitive ELISA (Cell Biolabs). TOFA (Cayman Chemical) was used at a final concentration of 5 μg/ml to inhibit fatty acid synthesis in DCs by blocking the synthesis of malonyl-CoA by acetyl-CoA carboxylase. The IRE-1α-specific inhibitor 4μ8c (Millipore) was used at a final concentration of 10 μM.
Total RNA from human samples was isolated using the miRVANA miRNA isolation Kit (Life Technologies). RNA from mouse samples was isolated using the Qiazol reagent (Qiagen). […] of RNA were used to generate cDNA using the High Capacity cDNA Reverse Transcription Kit (Life Technologies). Human and mouse Xbp1 splicing assays were performed as described (Lee et al., 2003a; Martinon et al., 2010) using conventional Reverse Transcription PCR (RT-PCR) and primers shown in Table 1. Gene expression analysis was done via Reverse Transcription quantitative PCR (RT-qPCR) using a Stratagene Mx3005 instrument and SYBR green I (Life Technologies). […] All primers used in this study are described in Table 1.
One goal of the present invention was to investigate how the tumor microenvironment influences the functional status of XBP1 in DCs. In particular, one aim of the present invention was to investigate whether cancer-derived factors could participate in triggering ER stress and XBP1 activation in tumor-infiltrating DCs, and determine whether this process could impact the detrimental function of these innate immune cells in hosts with ovarian cancer. […] In particular, naïve sDCs were isolated and stimulated for 24h with cytokines (e.g., IL-10, TGF-β, VEGFα, KC, CCL3, IL-6) at concentrations ranging from 5 ng/ml to 25 ng/ml (FIG. 3A-D). Cells were also exposed for 24 hours to increasing concentrations of cobalt chloride (CoCl2), a chemical inducer of the HIF1α pathway that mimics low oxygen conditions (Piret et al. 2002) (FIG. 3E-F). Splicing and upregulation of XBP1 was determined by RT-qPCR analysis (FIG. 3).
(§2) Whether these reactive aldehyde byproducts could trigger ER stress in DCs was investigated. […] Accordingly, intracellular 4-HNE-protein adducts were also readily found in tDCs isolated from these malignant samples (FIG. 4D). 4-HNE generation in mouse tDCs exposed to cell-free ovarian cancer ascites decreased upon exposure to the common antioxidant Vitamin E (FIG. 4E).
(In general: Quantitative PCR measures a nucleic acid by following its amplification.)

In the next test the test system is 4-HNE-protein adducts. The test can be described thus: 4-HNE-protein adducts in DCs by competitive ELISA. On the procedure: as §1, §2
The subject of test [1] is tDCs. The test can be described thus: Intracellular lipid content of tDCs by BODIPY 493/503 staining and flow cytometry. The conditions noted are these: tDCs with 25% cell-free ovarian cancer ascites, 24h, Bodipy493/503. On the procedure:
FIG. 9G: graphically depicts the intracellular lipid content of tDCs incubated in vitro with 25% cell-free ovarian cancer ascites supernatants in the presence of the indicated inhibitors. Intracellular lipid content was assessed 24h later via Bodipy493/503 staining. Data are representative of 3 independent experiments with similar results. #P<0.05 compared with control tDC incubated in the absence of cell-free ascites supernatants. *P<0.05 compared with ascites-exposed tDC but left untreated.
as §1
Intracellular lipid content in DCs was evaluated via flow cytometry using 4,4-Difluoro-1,3,5,7,8-Pentamethyl-4-Bora-3a,4a-Diaza-s-Indacene (BODIPY 493/503, Life Technologies) as previously reported (Herber et al., 2010). […] Cells were washed twice with 1×PBS and stained with 500 μl of BODIPY 493/503 at […] in PBS for 15 min at room temperature in the dark. Cells were washed twice and analyzed by flow cytometry. BODIPY 493/503 staining was detected in the PE channel. For intracellular cytokine staining, 5×10^6 cells isolated from malignant peritoneal wash samples of ovarian cancer-bearing mice were stimulated for 6h in 10% FBS complete RPMI containing PMA (Calbiochem), lonomycin (Calbiochem) and Brefeldin A (BioLegend). […] Flow cytometry data was analyzed using FlowJo version 9 or 10.
For orientation: Flow cytometry measures light scatter and fluorescence of single cells or particles in a stream.

Test [2] concerns tDCs. The test is described as follows: In vitro antigen presentation: OVA-pulsed tDCs cocultured with CFSE-labeled OT-1 T cells. The conditions noted are these: wild type tDC pre-treated, full-length OVA, cell-free malignant ascites. On the procedure: For in vitro antigen presentation experiments, tDC or sDC were sorted from the peritoneal cavity or spleen of XBP1^f/f or XBP1^f/f CD11c-Cre female mice bearing ID8-Defb29/Vegf-A ovarian tumors for 4 weeks (FIG. 1). tDCs were pulsed for overnight 50 μg/ml of full-length endotoxin-free OVA (SIGMA, Grade VII) in the presence or absence of Vitamin E (50 μg/ml) in media containing 25% cell-free ovarian cancer ascites supernatants. DCs were washed twice and cocultured for 3 days with CFSE-labeled CD8^+ T cells immunopurified from OT-1 mice at a 1:10 (DC to T cell) ratio, as previously described (Scarlett et al., 2009).

Where [3] appears, read: naïve sDCs exposed for 3h to increasing amounts.

As to `CCCCCC(O)/C=C/C=O` (stereo not drawn) [4-HNE, 4-hydroxy-trans-2-nonenal], in the test with XBP1 (setting [3]), the “BiP and CHOP gene expression (general ER stress response markers)” value is recorded as “robust induction”; the ERdj4 gene expression entry is reported as “upregulation”; the “splicing of the Xbp1 mRNA” value is “rapidly triggered splicing of the Xbp1 mRNA”. The “expression of lipid biosynthetic genes Agpat6, Fasn and Lpar1” value in the test on XBP1 (naïve sDCs stimulated for 3h) is “rapidly upregulated”. Moreover, the “formation of intracellular 4-HNE-protein adducts” value in the test on 4-HNE-protein adducts (naïve sDCs, increasing concentrations of purified 4-HNE) was “efficiently formed covalent adducts with intracellular proteins”.

On to `Cc1cc(=O)oc2c(C=O)c(O)ccc12` [4μ8c], for which, in the test with tDCs [1], the “intracellular lipid content of tDCs” value is given as “restricted the observed ascites-induced lipid biogenesis”.

Turning to `CCCCCCCCCCCCCCOc1ccc(C(=O)O)o1` [TOFA], the “intracellular lipid content of tDCs” value in the test on tDCs [1] is “prevented”.

`Cc1c(C)c2c(c(C)c1O)CC[C@@](C)(CCC[C@H](C)CCC[C@H](C)CCCC(C)C)O2` [Vitamin E, α-tocopherol]: the “4-HNE generation (intracellular 4-HNE-protein adducts) in tDCs” value with 4-HNE-protein adducts (mouse tDCs exposed to cell-free ovarian cancer ascites) was “decreased”. Also, the “intracellular lipid content of tDCs” value with tDCs [1] is “reduced intracellular lipid content”. In addition, the “antigen-presenting capacity (expansion of OT-1 T cells)” value with tDCs [2] is recorded as “phenocopied the enhanced antigen-presenting capacity exhibited by XBP1-deficient tDCs”.
